Laboratory results reported in PubChem BioAssay (NCI).
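The compound was tested at five concentrations on cells cultured in 96-well plates, with a 48-hour exposure period. GI50 = concentration required for 50% inhibition of growth. TGI: concentration producing complete growth inhibition.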

Key:
Assay in all cases: inhibition of tumour cell growth, NCI panel, 48 h
SR leukemia = system: SR leukemia
SF-539 CNS = system: SF-539 CNS
CAKI-1 renal = system: CAKI-1 renal
MDA-MB-231 breast = system: MDA-MB-231 breast
M14 melanoma = system: M14 melanoma
RPMI-8226 leukemia = system: RPMI-8226 leukemia
HS 578T breast = system: HS 578T breast
A498 renal = system: A498 renal
SN12C renal = system: SN12C renal
EKVX NSCLC = system: EKVX NSCLC
NCI-H23 lung = system: NCI-H23 lung
SNB-19 CNS = system: SNB-19 CNS
UACC-257 melanoma = system: UACC-257 melanoma
SK-MEL-28 melanoma = system: SK-MEL-28 melanoma
PC-3 prostate = system: PC-3 prostate
NCI/ADR-RES ovarian = system: NCI/ADR-RES ovarian
HCC-2998 colon = system: HCC-2998 colon
LOX IMVI melanoma = system: LOX IMVI melanoma
OVCAR-5 ovarian = system: OVCAR-5 ovarian
SK-OV-3 ovarian = system: SK-OV-3 ovarian
K-562 leukemia = system: K-562 leukemia
OVCAR-8 ovarian = system: OVCAR-8 ovarian
HOP-92 NSCLC = system: HOP-92 NSCLC
NCI-H522 lung = system: NCI-H522 lung
786-0 renal = system: 786-0 renal
MOLT-4 leukemia = system: MOLT-4 leukemia
A549 NSCLC = system: A549 NSCLC
SF-295 CNS = system: SF-295 CNS
UO-31 renal = system: UO-31 renal
MCF7 breast = system: MCF7 breast
NCI-H226 lung = system: NCI-H226 lung
U251 CNS = system: U251 CNS
CCRF-CEM leukemia = system: CCRF-CEM leukemia
NCI-H460 lung = system: NCI-H460 lung
RXF 393 renal = system: RXF 393 renal
IGROV1 ovarian = system: IGROV1 ovarian
HCT-15 colon = system: HCT-15 colon
DU-145 prostate = system: DU-145 prostate
UACC-62 melanoma = system: UACC-62 melanoma
MALME-3M melanoma = system: MALME-3M melanoma
SW-620 colon = system: SW-620 colon
SK-MEL-5 melanoma = system: SK-MEL-5 melanoma
BT-549 breast = system: BT-549 breast
HOP-62 NSCLC = system: HOP-62 NSCLC
SF-268 CNS = system: SF-268 CNS
KM12 colon = system: KM12 colon
HL-60(TB) leukemia = system: HL-60(TB) leukemia
OVCAR-3 ovarian = system: OVCAR-3 ovarian
COLO 205 colon = system: COLO 205 colon
TK-10 renal = system: TK-10 renal
ACHN renal = system: ACHN renal
T-47D breast = system: T-47D breast
HCT-116 colon = system: HCT-116 colon
HT29 colon = system: HT29 colon
SNB-75 CNS = system: SNB-75 CNS

`O=C1c2ccccc2-n2c1nc1ccc([N+](=O)[O-])cc1c2=O` showed a TGI (SR leukemia) greater than 100 µM, a TGI (SF-539 CNS) greater than 100 µM and a TGI (CAKI-1 renal) of 99.7 µM. The TGI (MDA-MB-231 breast) was greater than 100 µM, the TGI (M14 melanoma) was greater than 100 µM and the TGI (RPMI-8226 leukemia) was 84.4 µM. The TGI (HS 578T breast) was greater than 100 µM, the TGI (A498 renal) was 35.5 µM and the TGI (SN12C renal) was greater than 100 µM. It also gave a TGI (EKVX NSCLC) greater than 100 µM, a TGI (NCI-H23 lung) greater than 100 µM and a TGI (SNB-19 CNS) greater than 100 µM. The TGI (UACC-257 melanoma) was greater than 100 µM, the TGI (SK-MEL-28 melanoma) was greater than 100 µM and the TGI (PC-3 prostate) was greater than 100 µM. For the same compound, the TGI (NCI/ADR-RES ovarian) was greater than 100 µM, the TGI (HCC-2998 colon) was greater than 100 µM and the TGI (LOX IMVI melanoma) was 51.7 µM. The TGI (OVCAR-5 ovarian) was greater than 100 µM, the TGI (SK-OV-3 ovarian) was greater than 100 µM and the TGI (K-562 leukemia) was greater than 100 µM. It also gave a TGI (OVCAR-8 ovarian) of 46.6 µM, a TGI (HOP-92 NSCLC) greater than 100 µM and a TGI (NCI-H522 lung) greater than 100 µM. It also gave a TGI (786-0 renal) greater than 100 µM, a TGI (MOLT-4 leukemia) greater than 100 µM and a TGI (A549 NSCLC) greater than 100 µM. For the same compound, the TGI (SF-295 CNS) was 79.7 µM, the TGI (UO-31 renal) was greater than 100 µM and the TGI (MCF7 breast) was 24.4 µM. The TGI (NCI-H226 lung) was greater than 100 µM, the TGI (U251 CNS) was greater than 100 µM and the TGI (CCRF-CEM leukemia) was greater than 100 µM. For the same compound, the TGI (NCI-H460 lung) was greater than 100 µM, the TGI (RXF 393 renal) was greater than 100 µM and the TGI (IGROV1 ovarian) was greater than 100 µM. For the same compound, the TGI (HCT-15 colon) was greater than 100 µM, the TGI (DU-145 prostate) was greater than 100 µM and the TGI (UACC-62 melanoma) was greater than 100 µM. The TGI (MALME-3M melanoma) was greater than 100 µM, the TGI (SW-620 colon) was greater than 100 µM and the TGI (SK-MEL-5 melanoma) was greater than 100 µM. It also gave a TGI (BT-549 breast) greater than 100 µM, a TGI (HOP-62 NSCLC) greater than 100 µM and a TGI (SF-268 CNS) greater than 100 µM. For the same compound, the TGI (KM12 colon) was greater than 100 µM, the TGI (HL-60(TB) leukemia) was 43.5 µM and the TGI (OVCAR-3 ovarian) was 99.7 µM. For the same compound, the TGI (COLO 205 colon) was greater than 100 µM, the TGI (TK-10 renal) was greater than 100 µM and the TGI (ACHN renal) was greater than 100 µM. The TGI (T-47D breast) was greater than 100 µM and the TGI (HCT-116 colon) was greater than 100 µM.

For `Cc1c(C(=O)Nc2ccc(Oc3ccnc4cc(OCC(C)(C)O)ccc34)c(F)c2)c(=O)n(-c2ccccc2)n1C`, the GI50 (SR leukemia) was 3.66 µM, the TGI (SR leukemia) was greater than 100 µM and the GI50 (SF-539 CNS) was 1.46 µM. For the same compound, the TGI (SF-539 CNS) was greater than 100 µM, the GI50 (M14 melanoma) was 2.47 µM and the TGI (M14 melanoma) was greater than 100 µM. For the same compound, the GI50 (HS 578T breast) was 3.04 µM, the TGI (HS 578T breast) was greater than 100 µM and the GI50 (HT29 colon) was 2.29 µM. For the same compound, the TGI (HT29 colon) was greater than 100 µM, the GI50 (SNB-19 CNS) was 7.23 µM and the TGI (SNB-19 CNS) was greater than 100 µM. For the same compound, the GI50 (HCC-2998 colon) was greater than 100 µM, the TGI (HCC-2998 colon) was greater than 100 µM and the GI50 (SK-OV-3 ovarian) was 6.46 µM. It also gave a TGI (SK-OV-3 ovarian) greater than 100 µM, a GI50 (K-562 leukemia) of 0.393 µM and a TGI (K-562 leukemia) of 15.3 µM. The GI50 (HOP-92 NSCLC) was 1.88 µM, the TGI (HOP-92 NSCLC) was 22.2 µM and the GI50 (NCI-H522 lung) was 8.43 µM. It also gave a TGI (NCI-H522 lung) greater than 100 µM, a GI50 (786-0 renal) of 5.2 µM and a TGI (786-0 renal) greater than 100 µM. The GI50 (SF-295 CNS) was 0.782 µM, the TGI (SF-295 CNS) was greater than 100 µM and the GI50 (U251 CNS) was 8.86 µM. The TGI (U251 CNS) was greater than 100 µM, the GI50 (RXF 393 renal) was 2.72 µM and the TGI (RXF 393 renal) was greater than 100 µM. The GI50 (BT-549 breast) was 4.53 µM, the TGI (BT-549 breast) was greater than 100 µM and the GI50 (SNB-75 CNS) was 2.93 µM. It also gave a TGI (SNB-75 CNS) greater than 100 µM, a GI50 (HOP-62 NSCLC) of 19.4 µM and a TGI (HOP-62 NSCLC) greater than 100 µM. The GI50 (SF-268 CNS) was 6.37 µM, the TGI (SF-268 CNS) was greater than 100 µM and the GI50 (KM12 colon) was 0.226 µM. The TGI (KM12 colon) was greater than 100 µM, the GI50 (COLO 205 colon) was 2.81 µM and the TGI (COLO 205 colon) was greater than 100 µM. The GI50 (TK-10 renal) was 9.9 µM, the TGI (TK-10 renal) was greater than 100 µM and the GI50 (T-47D breast) was 2.79 µM. For the same compound, the TGI (T-47D breast) was greater than 100 µM.
